Reference: publication PMC11272598, “RG7774 (Vicasinabin), an orally bioavailable cannabinoid receptor 2 (CB2R) agonist, decreases retinal vascular permeability, leukocyte adhesion, and ocular inflammation in animal models” (Frontiers in Pharmacology, 2024)
Read-outs that look alike come from different tables or passages of the source.

Columns and labels:
[1] = target: T1, human CB2R (Homo sapiens, UniProt P34972); experiment: PathHunter β-arrestin recruitment assay in CHO cells; assay type: cell-based
T1 construct: bgal (beta-galactosidase fragment of the PathHunter system); host or cells: CHO-K1
T1 sequence (P34972 whole entry, the tested form may be a part): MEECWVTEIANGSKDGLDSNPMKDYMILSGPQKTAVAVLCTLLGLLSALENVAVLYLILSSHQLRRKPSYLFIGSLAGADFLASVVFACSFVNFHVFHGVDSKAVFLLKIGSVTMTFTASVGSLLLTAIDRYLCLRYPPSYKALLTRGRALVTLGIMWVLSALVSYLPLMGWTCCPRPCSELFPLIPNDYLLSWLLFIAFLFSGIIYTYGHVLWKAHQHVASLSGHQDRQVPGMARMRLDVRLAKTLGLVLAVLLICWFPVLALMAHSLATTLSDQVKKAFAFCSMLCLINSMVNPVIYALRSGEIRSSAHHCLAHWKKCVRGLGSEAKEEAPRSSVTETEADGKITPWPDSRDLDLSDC
Method: Assays were carried out using the PathHunter hCB2_bgal CHOK1 β-arrestin recruitment assay kit (DiscoveRx, Fremont, CA, United States) as previously described ([Soethoudt et al., 2017]). A total of 5,000 cells per well were seeded in 384-well plates (PerkinElmer, Waltham, MA, United States) containing 20 μL cell culture medium and incubated for 16–18 h at 37°C in 5% CO2. Cells were stimulated with RG7774 and incubated for 1.5 h at 37°C in 5% CO2. As the RG7774 stock solution was 100% DMSO, the final concentration of DMSO per assay point was diluted to 0.1%. PathHunter Detection mixture was used to determine β-galactosidase enzyme activity according to the manufacturer’s protocol. Detection mixture (12 µL per well) was added, and the plate was incubated for 1 h in the dark at RT. Chemiluminescence (indicated as relative light units) was measured on an EnVision multilabel plate reader (PerkinElmer, Waltham, MA, United States).

[2] = target: T2, Human FAAH (Homo sapiens, UniProt O00519); experiment: Human FAAH assay; assay type: biochemical; conditions: RG7774 10 µM; read-out: Mean ± SEM % inhibition of control, Human FAAH
T2 construct: purchased Cayman Chemical Company
T2 sequence (O00519 whole entry): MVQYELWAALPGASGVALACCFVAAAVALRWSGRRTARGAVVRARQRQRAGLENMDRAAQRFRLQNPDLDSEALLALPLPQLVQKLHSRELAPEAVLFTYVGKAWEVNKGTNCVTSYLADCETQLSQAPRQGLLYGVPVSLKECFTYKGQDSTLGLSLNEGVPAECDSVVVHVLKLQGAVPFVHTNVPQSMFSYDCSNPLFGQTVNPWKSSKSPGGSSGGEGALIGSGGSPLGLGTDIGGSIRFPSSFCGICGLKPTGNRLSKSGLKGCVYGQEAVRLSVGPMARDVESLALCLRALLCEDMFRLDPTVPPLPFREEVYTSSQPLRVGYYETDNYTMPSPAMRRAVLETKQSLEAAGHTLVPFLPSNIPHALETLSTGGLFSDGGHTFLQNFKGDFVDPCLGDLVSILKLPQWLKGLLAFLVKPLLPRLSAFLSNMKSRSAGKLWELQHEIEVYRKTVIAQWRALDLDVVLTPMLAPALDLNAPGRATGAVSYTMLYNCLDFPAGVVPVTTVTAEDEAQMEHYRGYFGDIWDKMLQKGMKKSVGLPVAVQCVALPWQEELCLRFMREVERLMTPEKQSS
Method: (§1) Mouse brain was homogenized in 50 mM Tris-HCl (pH 7.4) using a glass potter, centrifuged at 1000 g for 10 min, and the pellet was discarded. The supernatant (50 µg) was incubated with [^14C]-AEA (10 µM) (ARC, MO, USA) at 37°C for 15 min (Tris-HCl, pH 9.0) and reactions were stopped with a 2:1 (v/v) mixture of chloroform/methanol. [^14C]-ethanolamine release in the aqueous phase was measured as previously reported. Mouse supernatants (50 µg) were preincubated with RG7774 (10 µM) for 15 min and added directly to the incubation medium. Purified human FAAH (1.7 µg; Cayman Chemical Company, MI, USA) was incubated with [^14C]-AEA (10 µM) (ARC, MO, USA) at 37°C for 15 min (pH 9.0), as previously described. […] for 15 min with 8 different concentrations of RG7774 (0.1-500 µM) and added directly to the incubation medium (250 µL). Control experiments was carried out in the presence of the FAAH inhibitor, URB-597 (100 nM).

[3] = target: T3, Mouse FAAH (Mus musculus, UniProt O08914); experiment: Mouse FAAH assay (brain); assay type: biochemical; conditions: RG7774 10 µM; read-out: Mean ± SEM % inhibition of control, Mouse FAAH
T3 construct: Mouse brain was homogenized in 50 mM Tris-HCl (pH 7.4); from tissue; host or cells: mouse brain, 1000 g supernatant
T3 sequence (O08914 whole entry): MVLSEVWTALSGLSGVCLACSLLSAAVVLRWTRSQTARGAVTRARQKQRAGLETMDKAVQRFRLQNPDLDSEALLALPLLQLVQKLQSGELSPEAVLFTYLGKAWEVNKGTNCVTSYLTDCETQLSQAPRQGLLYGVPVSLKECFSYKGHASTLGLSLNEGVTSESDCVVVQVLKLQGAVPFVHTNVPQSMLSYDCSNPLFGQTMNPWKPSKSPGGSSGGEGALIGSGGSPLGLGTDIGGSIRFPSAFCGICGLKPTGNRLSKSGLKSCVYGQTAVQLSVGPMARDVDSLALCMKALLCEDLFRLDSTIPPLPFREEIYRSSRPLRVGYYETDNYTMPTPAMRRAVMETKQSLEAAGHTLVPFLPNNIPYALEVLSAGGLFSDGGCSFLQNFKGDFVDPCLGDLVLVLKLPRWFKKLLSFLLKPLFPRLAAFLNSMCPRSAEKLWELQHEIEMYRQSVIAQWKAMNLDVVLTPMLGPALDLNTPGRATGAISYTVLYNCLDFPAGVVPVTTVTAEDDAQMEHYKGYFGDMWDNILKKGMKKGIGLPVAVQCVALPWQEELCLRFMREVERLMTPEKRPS
Method: as §1

[4] = Plasma protein binding; assay type: in vitro ADME; conditions: read-out: PPB (fu)
Method: Pooled and frozen plasma from selected species were obtained from commercial suppliers (human […] and mouse […]3-C57; BioreclamationIV, NY, USA). Unbound RG7774 was identified using a 96-well, 150 μL, half-cell capacity Teflon equilibrium dialysis device with a 12–14 kDa molecular weight cut-off membrane (HT-Dialysis; Gales Ferry, CT, USA) to minimize nonspecific binding. RG7774 and positive control (diazepam) were tested with an initial total concentration of 1000 nM (cassettes of 2 to 5 test items). Equal volumes of matrix samples containing RG7774 or diazepam and blank (Soerensen) dialysis buffer were loaded into the opposite compartments of each well. Biological matrix and phosphate buffer were adjusted to pH 7.4 on the day of the experiment. The dialysis block was sealed and incubated at 37 °C in 5% CO2 for 5 h. The seal was removed and matrix and buffer from each dialysis were sampled and analyzed by LC-MS/MS. All protein binding determinations were performed in triplicate. Membrane integrity was tested in the HT-Dialysis device by determining the unbound fraction values for diazepam in each well. At equilibrium, the unbound drug concentration in the biological matrix compartment of the equilibrium dialysis apparatus is the same as the concentration of the compound in the buffer compartment. Thus, the percent unbound fraction was calculated as follows: % fraction unbound = 100 × buffer concentration after dialysis/matrix concentration after dialysis. Device recovery was checked by measuring the concentrations of compound in the matrix before dialysis and calculating the percent recovery (mass balance). Recovery ranging from 80%–120% was required for data acceptance.

[5] = GSH adduct formation in human liver microsomes; assay type: in vitro ADME
Method: GSH adduct formation assays were conducted as previously described. Briefly, RG7774 was incubated with human liver microsomes to form reactive metabolites, and glutathione was added as a nucleophile to convert the reactive metabolites into stable conjugates that could be analyzed by MS.

Cn1nnnc1Cn1nnc2c(N3CC[C@H](O)C3)nc(C(C)(C)C)nc21 [RG7774, (S)-1-(5-tert-butyl-3-[(1-methyl-1H-tetrazol-5-yl)methyl]-3H-[1,2,3]triazolo[4,5-d]pyrimidin-7-yl)pyrrolidin-3-ol]
EC50 [1]: 99.7 ± 5.72 nM | inhibition at 10 µM [2]: -5.2% | inhibition at 10 µM [3]: 6 ± 8.7% | fraction unbound at 5 h, 1000 nM ([4]; C57, pooled plasma, pH 7.4, mouse): 0.045 | fraction unbound at 5 h, 1000 nM ([4]; pooled plasma, pH 7.4, human): 0.178 | fraction unbound at 5 h, 1000 nM ([4]; pooled plasma, pH 7.4, rat): 0.158 | GSH (human liver microsomes) adducts [5]: none detected
